Bridge positions count the residues as written; N and C are the ends. Square brackets hold non-standard residues; d marks the D form. Primed or numbered codes have the meaning given here. Peptide text beside a SMILES is read from it. I, II: the chains in the order shown. NOTA‑1 = 1,4,7-triazacyclononane-N,N',N''-triacetic acid phenyl thiourea; Pro(trans-4-F) = O=C(O)[C@@H]1C[C@@H](F)CN1; Pro(cis-4-F) = O=C(O)[C@@H]1C[C@H](F)CN1; Pro(4R-Me) = C[C@H]1CN[C@H](C(=O)O)C1; Tic = O=C(O)[C@@H]1Cc2ccccc2CN1; PEG2′ = not defined here; Aib = CC(C)(N)C(=O)O Some results are limits rather than exact numbers.

Assay [1] deals with human Granzyme B (hGranzyme B) (Homo sapiens, UniProt P10144). Kind of assay: Surface plasmon resonance (SPR) binding kinetics to hGranzyme B. Particulars: 25° C., 1:1 binding model, KD=kd/ka; read-out: Granzyme B SPR Kd. The method, then: The kinetics of test peptide binding to human Granzyme B (hGranzyme B) was determined by SPR. All experiments were performed at 25° C. using the Biacore 8k+ instrument (Cytiva, Marlborough, MA). The Biacore 8k+ Insight Evaluation Software Version 3.0 was used to fit the data with a 1:1 binding model to determine the association rate constant ka (M^−1s^−1, where “M” ~equals molar and “s” ~equals seconds) and the dissociation rate constant kd (s^−1). These rate constants were used to calculate the equilibrium dissociation constant. KD (M)=kd/ka.
To measure the binding kinetics of peptides of interest, surfaces were prepared by a capture method to a Series S Streptavidin (SA) chip using a 1×HBS-EP+ running buffer (Cytiva). hGranzyme B was diluted to 10 μg/mL in IX HBS-EP+ and flowed over spot 2 of each flow cell on the chip at a flow rate of 10 ul/min for 20 s to achieve a level of capture of ~1100 RU. An unmodified spot 1 of each flow cell was used as a matrix binding control or reference surface. Binding kinetics were measured using single cycle kinetics at 25° C. by injecting 5 concentrations with 3-fold serial dilutions of test peptides from 0.01 μM to 1 μM. Compound dilutions were performed manually in a running buffer containing 1×HBS-EP+(Cytiva), and a final concentration of 2% DMSO. The interaction analyses over hGranzyme B, were performed using a 120 s association time and a 900 s dissociation time. All experiments were conducted at a flow rate of 50 μL/min with a data collection rate of 10 Hz.
Peptide dilution series included 2 zero concentration points (no compound) which were averaged and subtracted from the peptide concentration injection as DMSO control responses. Binding data acquired from the reference surface (matrix binding control) were subtracted from the binding data for hGranzyme B surface on the chip to determine specific binding. Next, the association phase data were solvent corrected to account for any signal fluctuation throughout the experiment due to subtle DMSO concentration differences. Corrected response data were analyzed using the Biacore 8k+ Evaluation Software Version 3.0 according to the manufacturer. SPR data for representative compounds of the disclosure are found in Table 8.
A general note: Surface plasmon resonance follows binding to a sensor surface in real time, without labels.

In assay [2] the target is T1, human Granzyme B (human, UniProt P10144 21-247). Kind of assay: cell-based or functional assay.
For assay [3], the target named is T1, human Granzyme B. Kind of assay: SPR, Biacore 8k+, hGranzyme B captured on SA chip, single cycle kinetics, 1:1 model.

T1 sequence (P10144 21-247 limits assumed): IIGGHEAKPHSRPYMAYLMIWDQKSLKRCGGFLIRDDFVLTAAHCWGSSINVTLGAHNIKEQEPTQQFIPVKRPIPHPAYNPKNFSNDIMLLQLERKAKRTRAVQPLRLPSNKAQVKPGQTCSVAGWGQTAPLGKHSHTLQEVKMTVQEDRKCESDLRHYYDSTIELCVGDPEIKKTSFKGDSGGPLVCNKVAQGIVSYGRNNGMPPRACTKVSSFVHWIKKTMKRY

Regarding `C[C@@H](O)[C@@H]1NC(=O)CNC(=O)C(C)(C)NC(=O)[C@H](CO)NC(=O)[C@H](CCC(N)=O)NC(=O)[C@H](CC(=O)O)NC(=O)[C@H](CCC(=O)O)NC(=O)[C@H](Cc2ccccc2)NC(=O)[C@H](CC(N)=O)NC(=O)[C@H](Cc2ccccc2)NC(=O)CSC[C@@H](C(=O)NCC(N)=O)NC(=O)[C@@H]2CCCN2C(=O)[C@H](CCC(N)=O)NC(=O)[C@H](Cc2c[nH]c3ccccc23)NC1=O` [Compound 45a, *F.N.F.E.D.Q.S.Aib.G.T.W.Q.P.*C.G.NH2] ({CH2CO}-FNFEDQS[Aib]GTWQPCG-NH2; thioether N-14), the dissociation constant (Kd) (in general, the constant that tells how readily two partners part at equilibrium) in assay [1] stood at 3.7 nM.

For the molecule `C[C@@H](O)[C@@H]1NC(=O)[C@H](CC(=O)O)NC(=O)[C@@H]2CCCN2C(=O)[C@H](CO)NC(=O)[C@H](CCC(N)=O)NC(=O)[C@H](CC(=O)O)NC(=O)[C@H](CCC(=O)O)NC(=O)[C@H](Cc2ccccc2)NC(=O)[C@H](CC(N)=O)NC(=O)[C@H](Cc2ccccc2)NC(=O)CSC[C@@H](C(=O)NCC(N)=O)NC(=O)[C@@H]2C[C@H](F)CN2C(=O)[C@H](CCC(N)=O)NC(=O)[C@H](Cc2c[nH]c3ccccc23)NC1=O` [Compound 48a, *F.N.F.E.D.Q.S.P.D.T.W.Q.Proc4F.*C.G.NH2] ({CH2CO}-FNFEDQSPDTWQ[Pro(cis-4-F)]CG-NH2; thioether N-14), in assay [1], the Kd amounted to 4.2 nM.

As for `C[C@@H](O)[C@@H]1NC(=O)[C@H](CC(=O)O)NC(=O)[C@@H]2CCCN2C(=O)[C@H](CO)NC(=O)[C@H](CCC(N)=O)NC(=O)[C@H](CC(=O)O)NC(=O)[C@H](CCC(=O)O)NC(=O)[C@H](Cc2ccccc2)NC(=O)[C@H](CC(N)=O)NC(=O)[C@H](Cc2ccccc2)NC(=O)CSC[C@@H](C(=O)NCC(=O)NCC(=O)N[C@@H](CCCCN)C(N)=O)NC(=O)[C@@H]2CCCN2C(=O)[C@H](CCC(N)=O)NC(=O)[C@H](Cc2c[nH]c3ccccc23)NC1=O` [Compound 51a, *F.N.F.E.D.Q.S.P.D.T.W.Q.P.*C.G.G.K.NH2] ({CH2CO}-FNFEDQSPDTWQPCGGK-NH2; thioether N-14), the dissociation constant Kd in assay [1] worked out at 4.8 nM.

As for `CC(C)C[C@@H]1NC(=O)[C@@H]2CCCN2C(=O)[C@H](CO)NC(=O)[C@H](CCC(N)=O)NC(=O)[C@H](CC(=O)O)NC(=O)[C@H](CCC(=O)O)NC(=O)[C@H](Cc2ccccc2)NC(=O)[C@H](CC(N)=O)NC(=O)[C@H](Cc2ccccc2)NC(=O)CSC[C@@H](C(=O)NCC(N)=O)NC(=O)[C@@H]2CCCN2C(=O)[C@H](CCC(N)=O)NC(=O)[C@H](Cc2c[nH]c3ccccc23)NC(=O)[C@H]([C@@H](C)O)NC1=O` [Compound 52a, *F.N.F.E.D.Q.S.P.L.T.W.Q.P.*C.G.NH2] ({CH2CO}-FNFEDQSPLTWQPCG-NH2; thioether N-14), in assay [1], the Kd came to 4.8 nM.

With `C[C@@H](O)[C@@H]1NC(=O)[C@H](CC(=O)O)NC(=O)[C@@H]2CCCN2C(=O)[C@H](CO)NC(=O)[C@H](CCC(N)=O)NC(=O)[C@H](CC(=O)O)NC(=O)[C@H](CCC(=O)O)NC(=O)[C@H](Cc2ccccc2)NC(=O)[C@H](CC(N)=O)NC(=O)[C@H](Cc2ccccc2)NC(=O)CSC[C@@H](C(=O)NCC(N)=O)NC(=O)[C@@H]2Cc3ccccc3CN2C(=O)[C@H](CCC(N)=O)NC(=O)[C@H](Cc2c[nH]c3ccccc23)NC1=O` [Compound 53a, *F.N.F.E.D.Q.S.P.D.T.W.Q.Tic.*C.G.NH2] ({CH2CO}-FNFEDQSPDTWQ[Tic]CG-NH2; thioether N-14), the dissociation constant (Kd) in assay [1] worked out at 4.9 nM.

With `C[C@@H]1C[C@H]2C(=O)N[C@H](C(=O)NCC(N)=O)CSCC(=O)N[C@@H](Cc3ccccc3)C(=O)N[C@@H](CC(N)=O)C(=O)N[C@@H](Cc3ccccc3)C(=O)N[C@@H](CCC(=O)O)C(=O)N[C@@H](CC(=O)O)C(=O)N[C@@H](CCC(N)=O)C(=O)N[C@@H](CO)C(=O)N3CCC[C@H]3C(=O)N[C@@H](CC(=O)O)C(=O)N[C@@H]([C@@H](C)O)C(=O)N[C@@H](Cc3c[nH]c4ccccc34)C(=O)N[C@@H](CCC(N)=O)C(=O)N2C1` [Compound 55a, *F.N.F.E.D.Q.S.P.D.T.W.Q.Prot4Me.*C.G.NH2] ({CH2CO}-FNFEDQSPDTWQ[Pro(4R-Me)]CG-NH2; thioether N-14), in assay [1], the Kd is 5.1 nM.

With `C[C@@H](O)[C@@H]1NC(=O)[C@H](CC(=O)O)NC(=O)[C@@H]2C[C@@H](F)CN2C(=O)[C@H](CO)NC(=O)[C@H](CCC(N)=O)NC(=O)[C@H](CC(=O)O)NC(=O)[C@H](CCC(=O)O)NC(=O)[C@H](Cc2ccccc2)NC(=O)[C@H](CC(N)=O)NC(=O)[C@H](Cc2ccccc2)NC(=O)CSC[C@@H](C(=O)NCC(=O)NCC(=O)N[C@@H](CCCCN)C(N)=O)NC(=O)[C@@H]2CCCN2C(=O)[C@H](CCC(N)=O)NC(=O)[C@H](Cc2c[nH]c3ccccc23)NC1=O` [Compound 87a, *F.N.F.E.D.Q.S.Prot4F.D.T.W.Q.P.*C.G.G.K.NH2] ({CH2CO}-FNFEDQS[Pro(trans-4-F)]DTWQPCGGK-NH2; thioether N-14), the dissociation constant (Kd) in assay [1] worked out at 4.2 nM.

B1: Compound 12a (peptide)
peptide: {CH2CO}-FNFEDQS[Pro(trans-4-F)]DTWQPCGGK(NOTA‑1)-NH2
modifications: thioether N-14
Turning to B1, in the assay with human Granzyme B [2], the “Human Granzyme B IC50 (fluorogenic substrate enzyme inhibition assay)” value is under 8 nM. Moreover, in the assay with human Granzyme B [3], binding was characterised by a dissociation constant (Kd) of 1.6 nM.

B2: Compound 2a (peptide)
peptide: {CH2CO}-FNFEDQSADTWQPCGGK(NOTA‑1)-NH2
modifications: thioether N-14
As for B2, in the assay with human Granzyme B [2], the “Human Granzyme B IC50 (fluorogenic substrate enzyme inhibition assay)” value is under 8 nM. In the assay with human Granzyme B [3], the affinity, expressed as Kd, was 13.5 nM.

B3: Compound 1a (peptide)
peptide: {CH2CO}-FNFEDQSADTWQPCG-NH2
modifications: thioether N-14
SMILES: C[C@@H]1NC(=O)[C@H](CO)NC(=O)[C@H](CCC(N)=O)NC(=O)[C@H](CC(=O)O)NC(=O)[C@H](CCC(=O)O)NC(=O)[C@H](Cc2ccccc2)NC(=O)[C@H](CC(N)=O)NC(=O)[C@H](Cc2ccccc2)NC(=O)CSC[C@@H](C(=O)NCC(N)=O)NC(=O)[C@@H]2CCCN2C(=O)[C@H](CCC(N)=O)NC(=O)[C@H](Cc2c[nH]c3ccccc23)NC(=O)[C@H]([C@@H](C)O)NC(=O)[C@H](CC(=O)O)NC1=O
Consider B3, for which the “Human Granzyme B IC50 (fluorogenic substrate enzyme inhibition assay)” value in the assay with human Granzyme B [2] was under 8 nM. In the assay with human Granzyme B [3], this molecule had a dissociation constant (Kd) of 19.8 nM.

B4: Compound 5a (peptide)
peptide 1: {‑CH2C(O)‑}-FNFEDQSADTWQPCGGK-NH2
peptide 2: {‑CH2C(O)‑}-FNFEDQSADTWQPCGGK-NH2
modifications: linker I:17-II:17 via PEG2′; also: dimer of two macrocycles linked by PEG2 between Lys17 side chains, thioether at chain A 14 to a chain's N-terminus, thioether at chain B 14 to a chain's N-terminus
notes: Dimer of two macrocycles linked by PEG2
Regarding B4, the “Human Granzyme B IC50 (fluorogenic substrate enzyme inhibition assay)” value with human Granzyme B [2] is under 8 nM.

Values taken from patent publication US20260207798A1, “CYCLIC PEPTIDES AS PET IMAGING AGENTS OF GRANZYME B” (priority 2022, published 2026).
